Among the data in ChEMBL document CHEMBL1759886, “Biological evaluation of phenolic constituents from the trunk of Berberis koreana” (Bioorg Med Chem Lett, 2011) are IC50 values, retold here.

Holding throughout (format): functional, cell-based
In one experiment the test system is SK-OV-3. Nature of the experiment: Anticancer activity against human SKOV3 cells by SRB assay.
The next experiment concerns A549. Nature of the experiment: Anticancer activity against human A549 cells by SRB assay. For orientation: Sulforhodamine B stains cellular protein and so reports cell mass.
The test system of the next experiment is SK-MEL-2. Nature of the experiment: Anticancer activity against human SK-MEL-2 cells by SRB assay.
For the next experiment, the system named is XF498. Nature of the experiment: Anticancer activity against human XF498 cells by SRB assay.
In the next experiment the test system is BV-2. Nature of the experiment: Antiinflammatory activity in mouse BV2 cells assessed as inhibition of lipopolysaccharide induced NO production.

With `COc1ccc(C[C@H]2CO[C@H](c3ccc(OC)c(OC)c3)[C@H]2CO)cc1OC`, the IC50 (commonly the concentration that inhibits the measured activity by half) with SK-OV-3 worked out at 21.5 µM; in the experiment with A549 it was 20.1 µM; with SK-MEL-2, 25.1 µM; with XF498, 15.4 µM; with BV-2 it was 44.4 µM.

For `COc1cc([C@@H](O)[C@@H](CO)Oc2ccc(CCCO)cc2OC)ccc1O`, the IC50 was above 30 µM in the experiment on SK-OV-3; above 30 µM in the experiment on A549; above 30 µM in the experiment with SK-MEL-2; 26.6 µM with XF498; 58.5 µM in the experiment on BV-2.

With `COc1cc(C[C@@H](CO)[C@](O)(CO)Cc2ccc(O)c(OC)c2)ccc1O`, the IC50 in the experiment on SK-OV-3 is above 30 µM; in the experiment on A549, above 30 µM; with SK-MEL-2, above 30 µM; with XF498, 27.6 µM; in the experiment with BV-2 it was 201 µM.

Take `COc1cc([C@@H]2c3c(cc(OC)c(O)c3OC)C[C@H](CO)[C@H]2CO)cc(OC)c1O`: the IC50 with SK-OV-3 was above 30 µM; with A549, 21.2 µM; in the experiment on SK-MEL-2, above 30 µM; in the experiment with XF498 it was 26.5 µM; in the experiment with BV-2, 113 µM.

`COc1cc(C(=O)CCO)cc(OC)c1O`: the half-inhibitory concentration (IC50) is above 30 µM in the experiment on SK-OV-3, above 30 µM in the experiment with A549, above 30 µM with SK-MEL-2 and 24.3 µM in the experiment with XF498.

Regarding `COc1ccc(CC(=O)O)cc1`, the IC50 is above 30 µM in the experiment with SK-OV-3, above 30 µM in the experiment on A549, above 30 µM in the experiment with SK-MEL-2 and 28.1 µM with XF498.

With `COc1cc([C@@H]2OC[C@@H]3[C@H]2CO[C@H]3c2cc(OC)c(O)c(OC)c2)cc(OC)c1O`, the IC50 in the experiment with SK-OV-3 was above 30 µM; with A549 it was above 30 µM; in the experiment on SK-MEL-2, 14.5 µM; with XF498 it was 8.82 µM; with BV-2 it was 13.5 µM.

For `COc1cc([C@H]2c3c(cc(OC)c(O)c3OC)C[C@@H](CO)[C@@H]2CO)cc(OC)c1O`, the IC50 in the experiment on SK-OV-3 is above 30 µM; in the experiment with A549, above 30 µM; in the experiment with SK-MEL-2, above 30 µM; in the experiment on XF498, 7.14 µM; with BV-2, 69.1 µM.

In the case of `COc1cc(C(=O)CCO)ccc1O`, the IC50 in the experiment with SK-OV-3 is above 30 µM; with A549 it was above 30 µM; with SK-MEL-2 it was above 30 µM; in the experiment with XF498 it was 28.4 µM.

Consider `COc1cc([C@@H]2OC[C@@H]3[C@H]2CO[C@H]3c2ccc(O[C@@H]3O[C@H](CO)[C@@H](O)[C@H](O)[C@H]3O)c(OC)c2)ccc1O`, for which the IC50 with SK-OV-3 is above 30 µM; with A549, above 30 µM; in the experiment on SK-MEL-2 it was above 30 µM; in the experiment with XF498, 25.4 µM; in the experiment on BV-2 it was 144 µM.

On to `COc1cc(C[C@@H](CO)[C@H](CO)Cc2ccc(O)c(OC)c2)ccc1O` [(+)-SECOISOLARICIRESINOL], for which the IC50 with SK-OV-3 is above 30 µM; in the experiment with A549, above 30 µM; in the experiment with SK-MEL-2, 21.5 µM; in the experiment with XF498 it was 18.8 µM; in the experiment with BV-2 it was 87.6 µM.

Turning to `COc1cc([C@@H]2c3cc(O)c(OC)cc3C[C@H](CO)[C@H]2CO)ccc1O` [(-)-ISOLARICIRESINOL], the IC50 in the experiment on SK-OV-3 is above 30 µM; with A549, 20.2 µM; with SK-MEL-2, 24.9 µM; in the experiment on XF498 it was 22.8 µM; with BV-2, 152 µM.

As to `COc1cc([C@@H]2OC[C@H]3[C@@H]2CO[C@H]3c2ccc(O)c(OC)c2)ccc1O` [(-)-PINORESINOL], the IC50 is above 30 µM in the experiment with SK-OV-3; above 30 µM in the experiment with A549; 26.6 µM in the experiment with SK-MEL-2; 13.3 µM in the experiment on XF498; 26.2 µM in the experiment with BV-2.

As for `COc1ccc([C@H](O)[C@@H](CO)Oc2c(OC)cc([C@@H]3Oc4c(OC)cc(CCCO)cc4[C@H]3CO)cc2OC)cc1OC` [BERBIKONOL], the IC50 in the experiment with SK-OV-3 is above 30 µM; with A549, above 30 µM; in the experiment on SK-MEL-2, 27.3 µM; in the experiment with XF498, 19.3 µM; with BV-2, 90.9 µM.

In the case of `COC(=O)[C@H](CO)c1cc(OC)c(O)c(OC)c1` [BERFUSSINOL], the IC50 is above 30 µM with SK-OV-3, above 30 µM with A549, 27.2 µM in the experiment on SK-MEL-2 and above 30 µM in the experiment with XF498.

As to `COc1cc(/C=C/C=O)ccc1O` [CONIFERYL ALDEHYDE], the IC50 is above 30 µM in the experiment on SK-OV-3, 21.2 µM with A549, above 30 µM with SK-MEL-2 and above 30 µM in the experiment with XF498.

In the case of `COc1cc([C@H]2Oc3c(OC)cc(CCCO)cc3[C@@H]2CO)ccc1O` [DIHYDRODEHYDRODICONIFERY ALCOHOL], the IC50 in the experiment with SK-OV-3 was above 30 µM; with A549, 22.4 µM; in the experiment on SK-MEL-2, 23.3 µM; in the experiment with XF498 it was 13.4 µM; in the experiment with BV-2, 28.8 µM.

Molecule `COc1cc([C@@H]2c3cc4c(cc3[C@@H](O[C@@H]3O[C@@H]5CO[C@@H](C)O[C@H]5[C@H](O)[C@H]3O)[C@H]3COC(=O)[C@H]23)OCO4)cc(OC)c1O` [ETOPOSIDE] yielded an IC50 with SK-OV-3 of 1.81 µM.

Consider `COc1cc(C[C@H]2CO[C@H](c3ccc(O)c(OC)c3)[C@H]2CO)ccc1O` [LARICIRESINOL], for which the IC50 in the experiment with SK-OV-3 is above 30 µM; with A549, 24.5 µM; in the experiment on SK-MEL-2 it was above 30 µM; in the experiment on XF498, 11.7 µM; with BV-2, 51.8 µM.

`COc1cc(C[C@H]2COC(=O)[C@@H]2Cc2ccc(O)c(OC)c2)ccc1O` [MATAIRESINOL]: the IC50 with SK-OV-3 was above 30 µM; in the experiment with A549, 23.8 µM; with SK-MEL-2 it was above 30 µM; in the experiment with XF498 it was 23.7 µM; in the experiment with BV-2 it was 94.5 µM.

On to `CNC(=N)NCCC[C@H](N)C(=O)O` [TILARGININE], for which the IC50 in the experiment on BV-2 came to 17.1 µM.

`COc1cc(C(=O)O)ccc1O` [VANILLIC ACID]: the IC50 in the experiment on SK-OV-3, in the experiment on A549, in the experiment with SK-MEL-2 and in the experiment on XF498 was above 30 µM in each case.
